This is an account of results in patent publication US20230338337A1, “BIOMARKERS FOR CANCER THERAPY USING MDM2 ANTAGONISTS” (OTSUKA PHARMACEUTICAL CO., LTD., priority 2019, published 2023).

Like-named read-outs stand apart in the source and are kept apart here.

Experiment [1] addresses MDM2-p53 interaction (in vitro translated MDM2) (Homo sapiens (Human), UniProt Q00987). The experiment in a line: MDM2-p53 interaction 96-well plate binding assay (ELISA). To be noted: for MDM2 % inhibition at 0.0010: at 0.0010 μM; for MDM2 % inhibition at 0.030: at 0.030 μM. On the technique in general: ELISA stands for enzyme-linked immunosorbent assay.
In experiment [2] the test system is SJSA-1 (p53 wild-type, MDM2 amplified osteosarcoma). Nature of the experiment: Protocol A: SRB growth inhibition assay. To be noted: read-out: SJSA-1 IC50 (μM) (Protocol A).
The subject of a further experiment is SJSA-1. Nature of the experiment: Protocol B: CellTiter-Glo cell viability assay. To be noted: Protocol B; for IC50: read-out: SJSA1 IC50 (μM) (Protocol B).

Sequence of MDM2-p53 interaction (in vitro translated MDM2) (Q00987 whole entry): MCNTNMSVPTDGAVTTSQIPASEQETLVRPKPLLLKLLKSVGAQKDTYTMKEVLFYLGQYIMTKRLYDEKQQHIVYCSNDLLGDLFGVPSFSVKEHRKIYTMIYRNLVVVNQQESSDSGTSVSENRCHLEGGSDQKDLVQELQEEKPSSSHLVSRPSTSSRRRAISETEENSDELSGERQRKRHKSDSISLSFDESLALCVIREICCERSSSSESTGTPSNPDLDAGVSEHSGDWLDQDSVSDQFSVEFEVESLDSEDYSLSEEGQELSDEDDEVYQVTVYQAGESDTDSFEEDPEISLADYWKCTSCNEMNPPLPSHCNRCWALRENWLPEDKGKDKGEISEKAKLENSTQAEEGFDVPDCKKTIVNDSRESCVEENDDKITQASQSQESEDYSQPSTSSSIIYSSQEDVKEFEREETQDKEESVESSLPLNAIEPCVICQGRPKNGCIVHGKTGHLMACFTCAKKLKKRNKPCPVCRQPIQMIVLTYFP

Turning to “(3R)-3-(4-chlorophenyl)-2-[(5-chloropyridin-2-yl)methyl]-4-fluoro-6-{1-hydroxy-1-[1-(2-hydroxyacetyl)piperidin-4-yl]ethyl}-3-methoxy-2,3-dihydro-1H-isoindol-1-one [Example 296]”, the “MDM2 % at concentration” value in experiment [1] stood at 62%@0.0010. The concentration for half-maximal inhibition (IC50) in experiment [2] came to 0.11 µM. Regarding “1-({[(1R)-5-[1-(1-acetylpiperidin-4-yl)-1-hydroxyethyl]-1-(4-chlorophenyl)-2-[(5-chloropyridin-2-yl)methyl]-7-fluoro-3-oxo-2,3-dihydro-1H-isoindol-1-yl]oxy}methyl)cyclopropane-1-carbonitrile [Example 301]”, the “MDM2 % at concentration” value in experiment [1] was 75%@0.0010. Moreover, the half-inhibitory concentration (IC50) in experiment [2] was found to be 0.07 µM. “(2S)-3-{[(1R)-1-(4-Chlorophenyl)-2-[(5-chloropyridin-2-yl)methyl]-7-fluoro-5-(2-hydroxypropan-2-yl)-3-oxo-2,3-dihydro-1H-isoindol-1-yl]oxy}-2-methylpropanamide [Example 167]”: the IC50 in experiment [2] was 0.64 µM. In the case of “6-{[(1R)-1-(4-chlorophenyl)-7-fluoro-3-oxo-1-[(3S)-oxolan-3-yloxy]-5-[2,2,2-trifluoro-1-hydroxy-1-(1-methyl-1H-pyrazol-4-yl)ethyl]-2,3-dihydro-1H-isoindol-2-yl]methyl}pyridine-3-carbonitrile [Example 428]”, in experiment [1], the “MDM2 % inhibition at 0.0010” value was found to be 65%@0.0010. Also, the IC50 in experiment [2] came out at 0.11 µM. On to “(3R)-2-[(5-chloro-3-hydroxypyridin-2-yl)methyl]-3-(4-chlorophenyl)-4-fluoro-6-[1-hydroxy-1-(1-methyl-1H-imidazol-4-yl)propyl]-3-[cis-3-hydroxycyclobutoxy]-2,3-dihydro-1H-isoindol-1-one [Example 487]”, for which the “MDM2 % inhibition at 0.0010” value in experiment [1] is 59%@0.0010. Also, the IC50 in experiment [2] stood at 0.12 µM. Take “(3R)-3-(4-chlorophenyl)-2-[(5-chloropyrimidin-2-yl)methyl]-4-fluoro-6-[1-(4-fluoro-1-methylpiperidin-4-yl)-1-hydroxypropyl]-3-(2-hydroxyethoxy)-2,3-dihydro-1H-isoindol-1-one [Example 565]”: the “MDM2 % inhibition at 0.0010” value in experiment [1] was 65%@0.0010. Also, the IC50 in experiment [2] is 0.045 µM. As to “6-{[(1R)-1-(4-chlorophenyl)-7-fluoro-5-[1-hydroxy-1-(1-methyl-1H-imidazol-4-yl)propyl]-1-(2-methoxyethoxy)-3-oxo-2,3-dihydro-1H-isoindol-2-yl]methyl}pyridine-3-carbonitrile [Example 430]”, the “MDM2 % inhibition at 0.0010” value in experiment [1] came to 59%@0.0010. Further, the IC50 in experiment [2] came to 0.11 µM. For “6-{[(1R)-1-(4-chlorophenyl)-7-fluoro-5-{1-hydroxy-1-[trans-4-hydroxycyclohexyl]propyl}-1-methoxy-3-oxo-2,3-dihydro-1H-isoindol-2-yl]methyl}pyridine-3-carbonitrile [Example 521]”, in that order: 77%@0.0010 and 0.035 µM. The like results for “6-{[(1R)-1-(4-chlorophenyl)-7-fluoro-5-[1-(4-fluorooxan-4-yl)-1-hydroxypropyl]-1-[(2R)-2-hydroxypropoxy]-3-oxo-2,3-dihydro-1H-isoindol-2-yl]methyl}pyridine-3-carbonitrile [Example 497]” were, in that order, 83%@0.0010 and 0.039 µM. For “(3R)-3-(4-chlorophenyl)-2-[(5-chloropyrimidin-2-yl)methyl]-4-fluoro-6-{1-hydroxy-1-[trans-4-hydroxycyclohexyl]propyl}-3-(2-hydroxyethoxy)-2,3-dihydro-1H-isoindol-1-one [Example 517]”, in that order: 82%@0.0010 and 0.019 µM. As for “(3R)-3-(4-chlorophenyl)-2-[(5-chloropyrimidin-2-yl)methyl]-4-fluoro-3-[(3-fluorooxetan-3-yl)methoxy]-6-[2-hydroxy-1-(piperazin-1-yl)butan-2-yl]-2,3-dihydro-1H-isoindol-1-one [Example 539]”, in the experiment with SJSA-1, the concentration for half-maximal inhibition (IC50) was 0.092 µM. The “MDM2 % inhibition at 0.0010” value in experiment [1] is given as 41%@0.0010. Turning to “(3R)-3-(4-chlorophenyl)-2-[(5-chloropyrimidin-2-yl)methyl]-4-fluoro-6-[1-hydroxy-1-(1-methyl-1H-imidazol-4-yl)propyl]-3-{[1-(hydroxymethyl)cyclopropyl]methoxy}-2,3-dihydro-1H-isoindol-1-one [Example 476]”, in the experiment with SJSA-1, the IC50 was 0.6 µM. The “MDM2 % inhibition at 0.030” value in experiment [1] was determined as 51%@0.030. The like results for “(3R)-3-(4-chlorophenyl)-2-[(5-chloropyrimidin-2-yl)methyl]-4-fluoro-6-{1-hydroxy-1-[trans-4-hydroxycyclohexyl]propyl}-3-(2-hydroxyethoxy)-2,3-dihydro-1H-isoindol-1-one [Example 519]” were, in that order, 1.9 µM and 35%@0.030. As for “2-{[(1R)-1-(4-chlorophenyl)-7-fluoro-5-{1-hydroxy-1-[trans-4-hydroxycyclohexyl]propyl}-1-methoxy-3-oxo-2,3-dihydro-1H-isoindol-2-yl]methyl}pyrimidine-5-carbonitrile [Example 504]”, the “MDM2 % inhibition at 0.0010” value in experiment [1] worked out at 71%@0.0010. Moreover, in experiment [2], the half-maximal inhibitory concentration (IC50) was 0.039 µM.

Consider “6-{[(1R)-1-(4-chlorophenyl)-7-fluoro-5-[1-(4-fluorooxan-4-yl)-1-hydroxypropyl]-1-[(2R)-2-hydroxypropoxy]-3-oxo-2,3-dihydro-1H-isoindol-2-yl]methyl}pyridine-3-carbonitrile [Example 498]”, for which the “SJSA1 (Protocol B) % inhibition at 10” value in the experiment on SJSA-1 (at 10 μM) stood at 96% at 10. The “MDM2 % inhibition at 0.10” value in experiment [1] (at 0.10 μM) is listed as 32%@0.10. With “(3R)-3-(4-chlorophenyl)-2-[(3,5-difluoropyridin-2-yl)methyl]-4-fluoro-6-[1-hydroxy-1-(1-methyl-1H-pyrazol-4-yl)ethyl]-3-[(1-hydroxycyclopropyl)methoxy]-2,3-dihydro-1H-isoindol-1-one [Example 351]”, the half-inhibitory concentration (IC50) in the experiment on SJSA-1 stood at 4.3 µM. In addition, the “MDM2 % at concentration” value in experiment [1] (at 0.10 μM) stood at 25%@0.10. Take “(3R)-3-(4-chlorophenyl)-4-fluoro-6-[1-hydroxy-1-(1-methyl-1H-pyrazol-4-yl)ethyl]-3-[(1-hydroxycyclopropyl)methoxy]-2-[(5-methoxypyridin-2-yl)methyl]-2,3-dihydro-1H-isoindol-1-one [Example 347]”: the half-inhibitory concentration (IC50) in the experiment on SJSA-1 stood at 1.7 µM. In addition, the “MDM2 % at concentration” value in experiment [1] (at 0.10 μM) is on record as 63%@0.10. As for “(3R)-3-(4-chlorophenyl)-2-[(5-chloropyrimidin-2-yl)methyl]-4-fluoro-6-[(1S)-1-hydroxy-1-[1-(oxetan-3-yl)piperidin-4-yl]propyl]-3-methoxy-2,3-dihydro-1H-isoindol-1-one [Example 551]”, in experiment [1], the “MDM2 % inhibition at 0.0010” value is recorded as 70%@0.0010. Further, the concentration for half-maximal inhibition (IC50) in experiment [2] is 0.031 µM. Take “6-{[(1R)-1-(4-chlorophenyl)-7-fluoro-5-[1-(4-fluorooxan-4-yl)-1-hydroxypropyl]-1-(2-hydroxyethoxy)-3-oxo-2,3-dihydro-1H-isoindol-2-yl]methyl}pyridine-3-carbonitrile [Example 499]”: the 50% inhibitory concentration (IC50) in the experiment on SJSA-1 worked out at 0.053 µM. Further, the “MDM2 % inhibition at 0.0010” value in experiment [1] was found to be 68%@0.0010. On to “(3R)-3-(4-chlorophenyl)-2-[(5-chloropyrimidin-2-yl)methyl]-4-fluoro-6-[1-hydroxy-1-(1-methyl-1H-imidazol-4-yl)propyl]-3-[(3S)-oxolan-3-yloxy]-2,3-dihydro-1H-isoindol-1-one [Example 475]”, for which, in experiment [1], the “MDM2 % inhibition at 0.0010” value is 71%@0.0010. For the same substance, the IC50 in experiment [2] came out at 0.028 µM. For “2-{[(1R)-1-(4-chlorophenyl)-1-[(1-cyanocyclopropyl)methoxy]-7-fluoro-5-[1-(4-fluoro-1-methylpiperidin-4-yl)-1-hydroxypropyl]-3-oxo-2,3-dihydro-1H-isoindol-2-yl]methyl}pyrimidine-5-carbonitrile [Example 574]”, in that order: 45%@0.0010 and 0.021 µM. With “(3R)-3-(4-chlorophenyl)-2-[(5-chloropyrimidin-2-yl)methyl]-4-fluoro-6-[1-(4-fluoropiperidin-4-yl)-1-hydroxypropyl]-3-[(3S)-oxolan-3-yloxy]-2,3-dihydro-1H-isoindol-1-one [Example 540]”, the IC50 in the experiment with SJSA-1 is 1.8 µM. Moreover, the “MDM2 % inhibition at 0.030” value in experiment [1] is 33%@0.030. On to “(3R)-3-(4-chlorophenyl)-2-[(5-chloropyrimidin-2-yl)methyl]-4-fluoro-6-[1-(4-fluoropiperidin-4-yl)-1-hydroxypropyl]-3-methoxy-2,3-dihydro-1H-isoindol-1-one [Example 544]”, for which the “MDM2 % inhibition at 0.0010” value in experiment [1] was 86%@0.0010. For the same substance, the IC50 in experiment [2] is 0.032 µM.

In the case of “2-{[(1R)-1-(4-chlorophenyl)-7-fluoro-5-[(1S)-1-hydroxy-1-(1-methylpiperidin-4-yl)propyl]-3-oxo-1-[(3S)-oxolan-3-yloxy]-2,3-dihydro-1H-isoindol-2-yl]methyl}pyrimidine-5-carbonitrile [Example 557]”, in experiment [1], the “MDM2 % inhibition at 0.0010” value is 81%@0.0010. For the same substance, the IC50 in experiment [2] is 0.25 µM. Consider “5-{[(1R)-1-(4-chlorophenyl)-7-fluoro-5-[1-hydroxy-1-(1-methyl-1H-imidazol-4-yl)propyl]-3-oxo-1-[(3S)-oxolan-3-yloxy]-2,3-dihydro-1H-isoindol-2-yl]methyl}pyridine-2-carbonitrile [Example 432]”, for which the concentration for half-maximal inhibition (IC50) in the experiment with SJSA-1 turned out to be 6.2 µM. Moreover, the “MDM2 % inhibition at 0.030” value in experiment [1] was found to be 45%@0.030. For “6-{[(1R)-1-(4-chlorophenyl)-7-fluoro-5-{1-hydroxy-1-[trans-4-hydroxycyclohexyl]propyl}-3-oxo-1-[cis-3-hydroxycyclobutoxy]-2,3-dihydro-1H-isoindol-2-yl]methyl}pyridine-3-carbonitrile [Example 520]”, in that order: 3.9 µM and 32%@0.030.

What is called IC50 is the concentration that inhibits the measured activity by half.
